According to PubChem BioAssay AID2060493 (Molecular Pharmacology Branch, DTP, NCI, 2025):
pIC50: −log10 of the molar value.

System: 616215-338-R-J1-PDC tumor spheroids, viability
Assay: Anticancer human tumor 616215-338-R-J1-PDC patient-derived colon adenocarcinoma cell line growth inhibition [GQUAD]
Settings: spheroids with HUVEC and MSC; for pIC50: curve of first compound; for viability, T/C: stronger effect = lower value
Outline: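 Viability of tumor cells grown as complex spheroids with endothelial and stromal cells, exposed to drug combinations. Top concentration at or near clinical Cmax (else 10 microM), diluted in half-log increments.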
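Also: spheroids exposed to agents for 7 days before readout.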
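For viability, T/C in this document: percent viability relative to DMSO vehicle control wells taken as 100%.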

pIC50 (second compound 0.0316 µM): 6.97
pIC50 (second compound 0.1 µM): > 7.50
pIC50 (second compound 0.316 µM): > 7.50
pIC50 (second compound 1 µM): > 7.50
pIC50 (second compound 3.16 µM): > 7.50
pIC50 (second compound 10 µM): > 7.50
Structure (SMILES): CC1COCCN1c1cc(C2(O)CC3CCC(C2)O3)c2cnn(-c3ccn[nH]3)c2n1 (configuration not stated) + Cc1cnc(CNC(=O)c2c(=O)c3ccc(N4CCCN(C)CC4)nc3n3c2sc2ccccc23)cn1
viability, T/C (second compound 0.0316 µM, first compound 0.0316 µM): 76.3%
viability, T/C (second compound 0.0316 µM, first compound 0.1 µM): 52.5%
viability, T/C (second compound 0.0316 µM, first compound 0.316 µM): 29.4%
viability, T/C (second compound 0.0316 µM, first compound 1 µM): 27.6%
viability, T/C (second compound 0.0316 µM, first compound 3.16 µM): 25.2%
viability, T/C (second compound 0.0316 µM, first compound 10 µM): 16.3%
viability, T/C (second compound 0.1 µM, first compound 0.0316 µM): 38%
viability, T/C (second compound 0.1 µM, first compound 0.1 µM): 35.2%
viability, T/C (second compound 0.1 µM, first compound 0.316 µM): 33%
viability, T/C (second compound 0.1 µM, first compound 1 µM): 24.1%
viability, T/C (second compound 0.1 µM, first compound 3.16 µM): 20.8%
viability, T/C (second compound 0.1 µM, first compound 10 µM): 25.4%
viability, T/C (second compound 0.316 µM, first compound 0.0316 µM): 43%
viability, T/C (second compound 0.316 µM, first compound 0.1 µM): 30.8%
viability, T/C (second compound 0.316 µM, first compound 0.316 µM): 23.8%
viability, T/C (second compound 0.316 µM, first compound 1 µM): 19.7%
viability, T/C (second compound 0.316 µM, first compound 3.16 µM): 18.9%
viability, T/C (second compound 0.316 µM, first compound 10 µM): 13.2%
viability, T/C (second compound 1 µM, first compound 0.0316 µM): 29.5%
viability, T/C (second compound 1 µM, first compound 0.1 µM): 32.9%
viability, T/C (second compound 1 µM, first compound 0.316 µM): 22.2%
viability, T/C (second compound 1 µM, first compound 1 µM): 28.2%
viability, T/C (second compound 1 µM, first compound 3.16 µM): 22.3%
viability, T/C (second compound 1 µM, first compound 10 µM): 17.6%
viability, T/C (second compound 3.16 µM, first compound 0.0316 µM): 42.9%
viability, T/C (second compound 3.16 µM, first compound 0.1 µM): 22%
viability, T/C (second compound 3.16 µM, first compound 0.316 µM): 18.1%
viability, T/C (second compound 3.16 µM, first compound 1 µM): 20.7%
viability, T/C (second compound 3.16 µM, first compound 3.16 µM): 15.8%
viability, T/C (second compound 3.16 µM, first compound 10 µM): 5.2%
viability, T/C (second compound 10 µM, first compound 0.0316 µM): 24.5%
viability, T/C (second compound 10 µM, first compound 0.1 µM): 28.1%
viability, T/C (second compound 10 µM, first compound 0.316 µM): 29.5%
viability, T/C (second compound 10 µM, first compound 1 µM): 14.7%
viability, T/C (second compound 10 µM, first compound 3.16 µM): 11.2%
viability, T/C (second compound 10 µM, first compound 10 µM): 0.29%
